Test results as given in US12662451B2, “Chemical compounds and uses thereof” (GLAXOSMITHKLINE INTELLECTUAL PROPERTY (NO.4) LIMITED, priority 2023, dated 2026).
Structures can show the parent of a compound that is named as a salt.

Key:
[1] = target: T1, recombinant full-length WRN protein (1-1432) (Homo sapiens, UniProt Q14191); test: WRN unwinding activity, fluorogenic 384-well assay (Example A); type: biochemical; settings: WRN unwinding activity, 4 hr; Table 2; read-out: 4 hr UNW pIC50 (converted)
T1 construct: recombinant full-length WRN protein (1-1432)
Outline: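 200 pM enzyme (2× stock) preincubated with compound 4 h at ambient temperature, then 200 μM ATP and 12 nM quenched TAMRA-labelled dsDNA (2× stocks) added for 60 min; EDTA-quenched. Buffer 25 mM Tris pH 8.0, 5 mM NaCl, 2 mM MgCl2. Fluorescence at 525/598 nm; pIC50 from four-parameter fit.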

[2] = test system: SW48 human colorectal cancer cells (MSI-H cancer cells); test: SW48 cell viability, CellTiter-Glo, 120 hours (Example B); settings: Homo sapiens, SW48, 120 h, read-out: SW48 pCC50, SW48 cell viability, 120 hours incubation (converted); Table 2

T1 sequence (Q14191 whole entry): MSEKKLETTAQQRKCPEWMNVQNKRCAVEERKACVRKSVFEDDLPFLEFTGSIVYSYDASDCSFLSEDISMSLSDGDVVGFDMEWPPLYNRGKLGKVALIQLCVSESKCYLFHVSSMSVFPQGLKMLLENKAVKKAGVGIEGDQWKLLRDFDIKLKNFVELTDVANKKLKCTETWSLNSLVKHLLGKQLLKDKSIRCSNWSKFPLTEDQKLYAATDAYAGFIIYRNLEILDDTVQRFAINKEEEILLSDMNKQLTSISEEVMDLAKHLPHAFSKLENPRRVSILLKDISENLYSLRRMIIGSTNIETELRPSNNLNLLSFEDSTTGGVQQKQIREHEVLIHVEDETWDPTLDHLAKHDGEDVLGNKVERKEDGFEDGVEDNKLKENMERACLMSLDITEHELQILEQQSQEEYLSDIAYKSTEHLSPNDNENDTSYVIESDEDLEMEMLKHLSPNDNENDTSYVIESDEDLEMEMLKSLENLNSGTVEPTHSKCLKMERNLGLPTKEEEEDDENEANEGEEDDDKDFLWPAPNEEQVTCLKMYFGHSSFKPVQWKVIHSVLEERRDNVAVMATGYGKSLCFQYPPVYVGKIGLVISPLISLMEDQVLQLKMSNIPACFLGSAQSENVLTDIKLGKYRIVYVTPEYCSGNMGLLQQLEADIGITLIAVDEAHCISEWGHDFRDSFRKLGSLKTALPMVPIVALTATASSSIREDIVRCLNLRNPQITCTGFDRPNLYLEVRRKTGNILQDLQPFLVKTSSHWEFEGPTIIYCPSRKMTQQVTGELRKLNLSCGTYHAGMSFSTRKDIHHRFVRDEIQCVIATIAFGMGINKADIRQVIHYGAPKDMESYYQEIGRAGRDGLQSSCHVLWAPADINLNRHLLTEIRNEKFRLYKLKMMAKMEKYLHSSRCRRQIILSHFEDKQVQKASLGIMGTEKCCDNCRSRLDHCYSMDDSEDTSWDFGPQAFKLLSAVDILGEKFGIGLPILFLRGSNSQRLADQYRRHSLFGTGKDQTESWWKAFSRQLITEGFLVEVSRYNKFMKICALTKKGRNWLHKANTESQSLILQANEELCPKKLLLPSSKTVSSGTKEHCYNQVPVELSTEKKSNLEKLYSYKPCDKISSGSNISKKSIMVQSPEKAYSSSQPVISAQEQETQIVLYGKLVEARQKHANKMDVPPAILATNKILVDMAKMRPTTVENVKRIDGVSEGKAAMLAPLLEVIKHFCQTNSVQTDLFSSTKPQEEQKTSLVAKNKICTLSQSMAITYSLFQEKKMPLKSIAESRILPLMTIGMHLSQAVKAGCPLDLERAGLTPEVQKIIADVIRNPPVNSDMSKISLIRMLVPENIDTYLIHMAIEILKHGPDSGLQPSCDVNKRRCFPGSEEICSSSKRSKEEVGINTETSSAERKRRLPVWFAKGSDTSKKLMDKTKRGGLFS

| SMILES | IC50 [1] | CC50 [2] |
| --- | --- | --- |
| Cc1nc2cc(S(=O)(=O)N(C)c3ccc([C@H]4C[C@@H](N5CC6(F)CC5C6)C[C@@H](C(=O)Nc5ccc(C(F)(F)F)cc5F)[C@@H]4C(=O)O)cc3)ccc2n1C (relative stereo) [Example 398, rel-(1R,2R,4R,6S)-2-((2-fluoro-4-(trifluoromethyl)phenyl)carbamoyl)-4-(4-fluoro-2-azabicyclo[2.1.1]hexan-2-yl)-6-(4-((N,1,2-trimethyl-1H-benzo[d]imidazole)-5-sulfonamido)phenyl)cyclohexane-1-carboxylic acid] | 100 nM | 25100 nM |
| CN(c1ccc([C@H]2CCC[C@@H](C(=O)Nc3ccc(C(F)(F)F)cc3F)[C@@H]2C(=O)O)cc1)S(=O)(=O)c1ccc2ocnc2c1 [Example 106, (1R,2R,6S)-2-((2-fluoro-4-(trifluoromethyl)phenyl)carbamoyl)-6-(4-(N-methylbenzo[d]oxazole-5-sulfonamido)phenyl)cyclohexane-1-carboxylic acid] | 3.16 nM | 1580 nM |
| CCC[C@H]1CC[C@H](NC(=O)[C@@H]2CCC[C@H](c3ccc(N(C)S(=O)(=O)c4ccc5c(c4)nc(C)n5C)cc3)[C@H]2C(=O)O)CC1 [Example 190, (1R,2R,6S)-2-(((1s,4R)-4-propylcyclohexyl)carbamoyl)-6-(4-((N,1,2-trimethyl-1H-benzo[d]imidazole)-5-sulfonamido)phenyl)cyclohexane-1-carboxylic acid] | 1.58 nM | 3980 nM |
| Cn1nccc1-c1ccc([C@H]2CCC[C@@H](C(=O)Nc3ccc(C(F)(F)F)cc3F)[C@@H]2C(=O)O)cc1 [Example 3, (1R,2R,6S)-2-((2-fluoro-4-(trifluoromethyl)phenyl)carbamoyl)-6-(4-(1-methyl-1H-pyrazol-5-yl)phenyl)cyclohexane-1-carboxylic acid] | 3.98 nM | 10000 nM |
| Cc1nc2cc(S(=O)(=O)N(C)c3ccc([C@H]4CCC[C@@H](C(=O)Nc5ccc(C(F)(F)F)cc5F)[C@@H]4C(=O)O)cc3)ccc2[nH]1 (single isomer, unassigned) [Example 92] | 1.58 nM | 794 nM |
| CN(c1ccc([C@H]2CCC[C@@H](C(=O)Nc3ccc(C(F)(F)F)cc3F)[C@@H]2C(=O)O)cc1)S(=O)(=O)c1ccc2c(c1)CNCC2 [Example 260, (1R,2R,6S)-2-((2-fluoro-4-(trifluoromethyl)phenyl)carbamoyl)-6-(4-((N-methyl-1,2,3,4-tetrahydroisoquinoline)-7-sulfonamido)phenyl)cyclohexane-1-carboxylic acid hydrochloride] | 2 nM | 1580 nM |
| CN(c1ccc([C@H]2CCC[C@@H](C(=O)Nc3ccc(C(F)(F)F)cc3F)[C@@H]2C(=O)O)cc1)S(=O)(=O)c1ccc2oc(=O)n(C)c2c1 [Example 100, (1R,2S,6R)-2-(4-((N,3-dimethyl-2-oxo-2,3-dihydrobenzo[d]oxazole)-5-sulfonamido)phenyl)-6-((2-fluoro-4-(trifluoromethyl)phenyl)carbamoyl)cyclohexane-1-carboxylic acid] | 5.01 nM | 3980 nM |
| Cc1nc2cc(S(=O)(=O)N(C)c3ccc([C@@H]4C[C@@H](N5CC[C@@H](F)C5)C[C@H](C(=O)Nc5ccc(C(F)(F)F)cc5F)[C@H]4C(=O)O)cc3)ccc2n1C (stereo in doubt) [Example 384, rel-(1R*,2R*,4S*,6S*)-2-((2-fluoro-4-(trifluoromethyl)phenyl)carbamoyl)-4-((R)-3-fluoropyrrolidin-1-yl)-6-(4-((N,1,2-trimethyl-1H-benzo[d]imidazole)-5-sulfonamido)phenyl)cyclohexane-1-carboxylic acid] | 398 nM | 25100 nM |
| N#Cc1ccc(-c2ccc([C@H]3CCC[C@@H](C(=O)Nc4ccc(C(F)(F)F)cc4F)[C@@H]3C(=O)O)cc2)nn1 [Example 55, (1R,2S,6R)-2-(4-(6-cyanopyridazin-3-yl)phenyl)-6-((2-fluoro-4-(trifluoromethyl)phenyl)carbamoyl) cyclohexane-1-carboxylic acid] | 2.51 nM | 10000 nM |
| Cc1nc2cc(S(=O)(=O)N(C)c3ccc([C@H]4CCC[C@@H](C(=O)Nc5ccc(C(C)C)cc5)[C@H]4C(=O)O)cc3)ccc2n1C (single isomer, unassigned) [Example 77] | 3.98 nM | 3980 nM |
| CN1CCC[C@H](c2cccc(S(=O)(=O)N(C)c3ccc([C@H]4CCC[C@@H](COc5ccc(C(F)(F)F)cc5)[C@@H]4C(=O)O)cc3)c2)C1 (single isomer, unassigned) [Example 217, rel-(1R,2S,6R)-2-(4-((N-methyl-3-((S*)-1-methylpiperidin-3-yl)phenyl)sulfonamido)phenyl)-6-((4-(trifluoromethyl)phenoxy)methyl)cyclohexane-1-carboxylic acid] | 126 nM | 10000 nM |
| O=C(O)[C@@H]1[C@@H](c2ccc(-c3ccnnc3)cc2)CCC[C@H]1C(=O)Nc1ccc(C(F)(F)F)cc1F [Example 18, (1R,2R,6S)-2-((2-fluoro-4-(trifluoromethyl)phenyl)carbamoyl)-6-(4-(pyridazin-4-yl)phenyl)cyclohexane-1-carboxylic acid] | 5.01 nM | 12600 nM |
| Cc1nc2cc(S(=O)(=O)N(C)c3ccc([C@@H]4C[C@@]5(CCCO5)C[C@H](C(=O)Nc5ccc(C(F)(F)F)cc5F)[C@H]4C(=O)O)cc3)ccc2n1C (stereo in doubt) [Example 387, rel-(5R,7R,8R,9S)-7-((2-fluoro-4-(trifluoromethyl)phenyl)carbamoyl)-9-(4-((N,1,2-trimethyl-1H-benzo[d]imidazole)-5-sulfonamido)phenyl)-1-oxaspiro[4.5]decane-8-carboxylic acid] | 63.1 nM | 10000 nM |
| CN(c1ccc([C@H]2CCC[C@@H](C(=O)Nc3ccc(C(F)(F)F)cc3F)[C@@H]2C(=O)O)cc1)S(=O)(=O)c1cccnc1 [Example 95, (1R,2R,6S)-2-((2-fluoro-4-(trifluoromethyl)phenyl)carbamoyl)-6-(4-(N-methylpyridine-3-sulfonamido)phenyl)cyclohexane-1-carboxylic acid] | 2.51 nM | 3160 nM |
| O=C(O)[C@@H]1[C@@H](c2ccc(-c3ccc(F)nn3)cc2)CCC[C@H]1C(=O)Nc1ccc(C(F)(F)F)cc1F [Example 37] | 2 nM | 2510 nM |
| CCN(c1ccc([C@H]2CCC[C@@H](C(=O)Nc3ccc(C(F)(F)F)cc3F)[C@@H]2C(=O)O)cc1)S(=O)(=O)c1ccc2c(c1)nc(C)n2C [Example 233] | 12.6 nM | 5010 nM |
| CN(c1ccc([C@H]2CCC[C@@H](C(=O)Nc3ccc(C(F)(F)F)cc3F)[C@@H]2C(=O)O)cc1)S(=O)(=O)c1ccc(S(N)(=O)=O)cc1 [Example 133, (1R,2R,6S)-2-((2-fluoro-4-(trifluoromethyl)phenyl)carbamoyl)-6-(4-((N-methyl-4-sulfamoylphenyl)sulfonamido)phenyl)cyclohexane-1-carboxylic acid] | 3.98 nM | 12600 nM |
| Cc1nc2cc(S(=O)(=O)N(C)c3ccc([C@@H]4C[C@H](OCC5CC5)C[C@H](C(=O)Nc5ccc(C(F)(F)F)cc5F)[C@H]4C(=O)O)cc3)ccc2n1C (stereo in doubt) [Example 313, rel-(1R,2R,4R,6S)-4-(cyclopropylmethoxy)-2-((2-fluoro-4-(trifluoromethyl)phenyl)carbamoyl)-6-(4-((N,1,2-trimethyl-1H-benzo[d]imidazole)-5-sulfonamido)phenyl)cyclohexane-1-carboxylic acid] | 251 nM | 20000 nM |
| C=CS(=O)(=O)N(C)c1ccc([C@H]2CCC[C@@H](C(=O)Nc3ccc(C(F)(F)F)cc3F)[C@@H]2C(=O)O)cc1 [Example 135, (1R,2R,6S)-2-((2-fluoro-4-(trifluoromethyl)phenyl)carbamoyl)-6-(4-(N-methylvinylsulfonamido)phenyl)cyclohexane-1-carboxylic acid] | 2.51 nM | 2510 nM |
| O=C(O)[C@@H]1[C@@H](c2ccc(-c3cccc4[nH]ncc34)cc2)CCC[C@H]1C(=O)Nc1ccc(C(F)(F)F)cc1F [Example 1, (1R,2S,6R)-2-(4-(1H-indazol-4-yl)phenyl)-6-((2-fluoro-4-(trifluoromethyl)phenyl)carbamoyl)cyclohexane-1-carboxylic acid] | 1000 nM | 10000 nM |
| Cc1nc2cc(S(=O)(=O)N(C)c3ccc([C@@H]4C[C@H](OC[C@H]5COCCO5)C[C@H](C(=O)Nc5ccc(C(F)(F)F)cc5F)[C@H]4C(=O)O)cc3)ccc2n1C (stereo in doubt) [Example 328, (1R*,2R*,4R*,6S*)-4-(((R)-1,4-dioxan-2-yl)methoxy)-2-((2-fluoro-4-(trifluoromethyl)phenyl)carbamoyl)-6-(4-((N,1,2-trimethyl-1H-benzo[d]imidazole)-5-sulfonamido)phenyl)cyclohexane-1-carboxylic acid] | 126 nM | 15800 nM |
| Cc1nc2cc(S(=O)(=O)N(C)c3ccc([C@@H]4CC[C@H](C)[C@H](C(=O)Nc5ccc(C(F)(F)F)cc5F)[C@H]4C(=O)O)cc3)ccc2n1C (single isomer, unassigned) [Example 236] | 631 nM | 7940 nM |
| Cc1nc2cc(S(=O)(=O)N(C)c3ccc([C@H]4CCC[C@@H](C(=O)Nc5ccc(C(C)C)cc5)[C@H]4C(=O)O)cc3)ccc2n1C (racemic) [Example 75, rac-(1R,2S,6R)-2-((4-isopropylphenyl)carbamoyl)-6-(4-((N,1,2-trimethyl-1H-benzo[d]imidazole)-5-sulfonamido)phenyl)cyclohexane-1-carboxylic acid] | 6.31 nM | 5010 nM |
